Several values for one entry are separate records, joined by “and”; a condition that tells them apart may be missing. Equal values may be shown once. Read-outs that look alike come from different tables or passages of the source.
Tests used:
[1] = target: NDM-1 (Klebsiella pneumoniae, UniProt C7C422); assay: biochemical; assay type: biochemical; conditions: for IC50: 10 mM HEPES pH 7.5, 25 °C, average of at least two independent assays; for inhibition of NDM-1, in words: tested up to 200 μM
[2] = target: VIM-2 (Escherichia coli, UniProt Q5U7L7); assay: biochemical
[3] = target: IMP-1 (Serratia marcescens, UniProt P52699); assay: biochemical; assay type: biochemical; conditions: for inhibition of IMP-1, in words: tested up to 200 μM
Chain of IMP-1 (P52699 19-246, looked up, species assumed): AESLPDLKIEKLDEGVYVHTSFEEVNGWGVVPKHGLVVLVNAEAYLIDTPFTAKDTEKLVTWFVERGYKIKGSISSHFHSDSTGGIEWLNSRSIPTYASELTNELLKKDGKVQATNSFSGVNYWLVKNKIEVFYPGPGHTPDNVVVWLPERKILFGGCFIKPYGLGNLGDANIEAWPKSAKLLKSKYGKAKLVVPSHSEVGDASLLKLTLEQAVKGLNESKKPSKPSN

[4] = target: VIM-1 (Pseudomonas aeruginosa, UniProt A0A0F7KYQ8); assay: biochemical; assay type: biochemical; conditions: for inhibition of VIM-1, in words: tested up to 200 μM
[5] = test system: IMP-1-producing strain K. pneumoniae NTBC062; assay: Whole-cell meropenem potentiation, CLSI broth microdilution MIC; assay type: cell-based, Klebsiella pneumoniae; conditions: no inhibitor, K. pneumoniae NTBC062 (IMP-1)
Experimental: (§1) Minimal inhibitory concentrations (MIC) were determined using the Clinical Laboratory Standards Institute (CLSI) broth microdilution procedure. MBL-positive Enterobacteriaceae clinical isolates tested in the susceptibility study included NDM-1-producing strain E. coli NTBC121, VIM-1-producing strain K. pneumoniae NTBC055, and IMP-1-producing strain K. pneumoniae NTBC062. (Individual MICs for all strains tested are presented in Table 2 and Table 1 in the Supporting Information).

[6] = test system: VIM-1-producing strain Klebsiella pneumoniae NTBC055; assay: as above; assay type: cell-based; conditions: no inhibitor, K. pneumoniae NTBC055 (VIM-1)
Experimental: as §1

[7] = test system: NDM-1-producing strain Escherichia coli NTBC121; assay: as above; assay type: cell-based; conditions: no inhibitor, E. coli NTBC121 (NDM-1)
Experimental: as §1

[8] = 300 μM imipenem, read-out: NDM-1 IC50
[9] = 300 μM imipenem, 10 mM HEPES pH 7.5, 25 °C, average of at least two independent assays, read-out: IMP-1 IC50
[10] = 300 μM imipenem, 10 mM HEPES pH 7.5, 25 °C, average of at least two independent assays, read-out: VIM-1 IC50

Chain of NDM-1 (C7C422 29-270, looked up, species assumed): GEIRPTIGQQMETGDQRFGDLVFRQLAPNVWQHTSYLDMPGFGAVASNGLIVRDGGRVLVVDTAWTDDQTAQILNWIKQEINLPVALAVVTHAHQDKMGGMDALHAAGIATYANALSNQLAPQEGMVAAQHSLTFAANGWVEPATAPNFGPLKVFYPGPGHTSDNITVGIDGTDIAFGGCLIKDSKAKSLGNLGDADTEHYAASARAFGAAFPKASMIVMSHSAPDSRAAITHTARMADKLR

Row | SMILES | IC50 ([1]; NDM-1 IC50, 300 μM imipenem) | IC50 [4] [µM] | IC50 [1, 8] [µM] | IC50 [3, 9] [µM] | IC50 [4, 10] [µM] | further results
1 | O=C(O)c1ccc2ccccc2n1 [Compound 7] | 40.9 µM | > 200 |  |  |  | inhibition of NDM-1, in words [1]: modest inhibition; IC50 [2]: > 200 µM; IC50 [3]: > 200 µM; inhibition of IMP-1, in words [3]: no inhibition; inhibition of VIM-1, in words [4]: no inhibition
2 | Cn1cnc(C(=O)O)c1 [Compound 8] | > 200 µM | > 200 |  |  |  | inhibition of NDM-1, in words [1]: no detectable inhibition; IC50 [2]: > 200 µM; IC50 [3]: > 200 µM; inhibition of IMP-1, in words [3]: no detectable inhibition; inhibition of VIM-1, in words [4]: no detectable inhibition
3 | O=C(O)c1cnccn1 [Compound 9] | > 200 µM | > 200 |  |  |  | inhibition of NDM-1, in words [1]: no detectable inhibition; IC50 [2]: > 200 µM; IC50 [3]: > 200 µM; inhibition of IMP-1, in words [3]: no detectable inhibition; inhibition of VIM-1, in words [4]: no detectable inhibition
4 | O=C(O)c1cccnn1 [Compound 10] | > 200 µM | > 200 |  |  |  | inhibition of NDM-1, in words [1]: no detectable inhibition; IC50 [2]: > 200 µM; IC50 [3]: > 200 µM; inhibition of IMP-1, in words [3]: no detectable inhibition; inhibition of VIM-1, in words [4]: no detectable inhibition
5 | O=C(O)c1cc2ccccc2cn1 [Compound 11] |  |  |  |  |  | inhibition of NDM-1, in words [1]: modest inhibition; inhibition of IMP-1, in words [3]: no inhibition; inhibition of VIM-1, in words [4]: no inhibition
6 | O=C(O)c1ncccc1-c1ccncc1 [Compound 12] | > 200 µM | > 200 |  |  |  | IC50 [2]: > 200 µM; IC50 [3]: > 200 µM
7 | O=C(O)c1ncccc1-c1ccoc1 [Compound 13] | > 200 µM | > 200 |  |  |  | IC50 [2]: > 200 µM; IC50 [3]: > 200 µM
8 | O=C(O)c1ncccc1-c1ccc(F)c(F)c1 [Compound 14] | > 200 µM | > 200 |  |  |  | IC50 [2]: > 200 µM; IC50 [3]: > 200 µM
9 | O=C(O)c1cccc(-c2ccoc2)n1 [Compound 15] | 163 µM | > 200 |  |  |  | IC50 [2]: > 200 µM; IC50 [3]: > 200 µM
10 | O=C(O)c1cccc(-c2ccc(F)c(F)c2)n1 [Compound 16] | > 200 µM | > 200 |  |  |  | IC50 [2]: > 200 µM; IC50 [3]: > 200 µM
11 | O=C(CCc1ccccc1)Nc1cccnc1C(=O)O [Compound 19] |  |  | 20.3 | 34.1 | > 200 | 
12 | CCCCC(=O)Nc1cccnc1C(=O)O [Compound 20] |  |  | 11.1 | 157 | > 200 | 
13 | O=C(Cc1c(Cl)cccc1Cl)Nc1cccnc1C(=O)O [Compound 21] |  |  | 8.99 | > 200 | > 200 | 
14 | O=C(Cc1cccs1)Nc1cccnc1C(=O)O [Compound 23] | 6.56 µM and 6.6 µM | 133 |  |  |  | IC50 [2]: 91.3 µM; IC50 [3]: 146 µM
15 | COc1ccc(C(=O)Nc2cccc(C(=O)O)n2)cc1 [Compound 24] |  |  | 20.3 | 156 | > 200 | 
16 | O=C(O)c1cccc(NC(=O)c2cocn2)n1 [Compound 25] |  |  | 55.9 | > 200 | > 200 | 
17 | CCCCC(=O)Nc1cccc(C(=O)O)n1 [Compound 26] |  |  | 19.4 | > 200 | > 200 | 
18 | O=C(Cc1c(Cl)cccc1Cl)Nc1cccc(C(=O)O)n1 [Compound 27] |  |  | > 200 | 80 | > 200 | 
19 | O=C(Cc1ccc(Cl)c(Cl)c1)Nc1cccc(C(=O)O)n1 [Compound 28] |  |  | 3.56 | 82.2 | > 200 | 
20 | O=C(Cc1cccs1)Nc1cccc(C(=O)O)n1 [Compound 29] |  |  | > 200 | > 200 | > 200 | 
21 | CS(=O)(=O)c1ccc(S(=O)(=O)Nc2cccnc2C(=O)O)cc1 [Compound 30] |  |  | 69.9 | > 200 | > 200 | 
22 | CS(=O)(=O)Nc1cccnc1C(=O)O [Compound 31] |  |  | 68.8 | > 200 | > 200 | 
23 | N#Cc1cccc(S(=O)(=O)Nc2cccnc2C(=O)O)c1 [Compound 33] |  |  | 148 | > 200 | > 200 | 
24 | O=C(O)c1ncccc1NS(=O)(=O)c1ccccc1Cl [Compound 34] |  |  | > 200 | > 200 | > 200 | 
25 | O=C(O)c1ncccc1NS(=O)(=O)c1ccc(F)cc1 [Compound 35] |  |  | 52.1 | > 200 | > 200 | 

Row | SMILES | IC50 ([1]; NDM-1 IC50, 300 μM imipenem) | IC50 [4] [µM] | IC50 [1, 8] [µM] | IC50 [3, 9] [µM] | IC50 [4, 10] [µM] | further results
26 | O=C(O)c1ncccc1NS(=O)(=O)Cc1cccc(F)c1 [Compound 36] |  |  | > 200 | 152 | 108 | 
27 | O=C(O)c1ncccc1NS(=O)(=O)Cc1ccc(Cl)cc1 [Compound 42] |  |  | 18.4 | 146 | 88.4 | 
28 | O=C(O)c1ncccc1NS(=O)(=O)Cc1ccc([N+](=O)[O-])cc1 [Compound 44] |  |  | 120 | > 200 | > 200 | 
29 | COc1cccc(S(=O)(=O)Nc2cccc(C(=O)O)n2)c1 [Compound 45] |  |  | 43.3 | > 200 | > 200 | 
30 | O=C(O)c1cccc(NS(=O)(=O)Cc2ccccc2)n1 [Compound 46] |  |  | 43.7 | > 200 | > 200 | 
31 | CS(=O)(=O)Nc1cccc(C(=O)O)n1 [Compound 47] |  |  | 32.8 | > 200 | > 200 | 
32 | O=C(O)c1cccc(C(=O)NCc2nccs2)n1 [Compound 48] |  |  | > 200 | > 200 | > 200 | 
33 | CCCCNC(=O)c1cccc(C(=O)O)n1 [Compound 49] |  |  | > 200 | > 200 | > 200 | 
34 | COc1cccc(CC(=O)Nc2ccnc(C(=O)O)c2)c1 [Compound 50] |  |  | 35.3 | > 200 | > 200 | 
35 | CCCCC(=O)Nc1ccnc(C(=O)O)c1 [Compound 51] |  |  | 11.5 | > 200 | > 200 | 
36 | O=C(Cc1ccccc1)Nc1ccnc(C(=O)O)c1 [Compound 52] |  |  | 11.6 | > 200 | > 200 | 
37 | O=C(Cc1cccs1)Nc1ccnc(C(=O)O)c1 [Compound 53] |  |  | 43 | > 200 | > 200 | 
38 | O=C(O)c1cc(NS(=O)(=O)Cc2ccccc2)ccn1 [Compound 54] |  |  | 65 | > 200 | > 200 | 
39 | O=C(O)c1cc(NS(=O)(=O)c2ccccc2)ccn1 [Compound 55] |  |  | 145 | > 200 | > 200 | 
40 | O=C(Cc1ccccc1)Nc1ccc(C(=O)O)nc1 [Compound 56] |  |  | 21.4 | > 200 | > 200 | 
41 | O=C(Cc1ccc(F)cc1)Nc1ccc(C(=O)O)nc1 [Compound 57] |  |  | 27.9 | > 200 | > 200 | 
42 | O=C(O)c1ccc(NS(=O)(=O)Cc2ccccc2)cn1 [Compound 58] |  |  | 3.99 | > 200 | > 200 | 
43 | O=C(O)c1ccc(NS(=O)(=O)c2ccccc2)cn1 [Compound 59] |  |  | 2.17 | 114 | 109 | 
44 | N#Cc1cccc(S(=O)(=O)Nc2ccc(C(=O)O)nc2)c1 [Compound 60] |  |  | 7.2 | 162 | > 200 | 
45 | O=C(O)c1ncccc1NS(=O)(=O)Cc1ccccc1Cl [Compound 67] | 32.6 µM | 10.9 |  |  |  | 
46 | O=C(O)c1ncccc1NS(=O)(=O)Cc1ccc(Cl)c(Cl)c1 [Compound 69] | > 200 µM | > 200 |  |  |  | IC50 [3]: > 200 µM
47 | O=C(O)c1ncccc1NS(=O)(=O)Cc1ccc(Cl)cc1Cl [Compound 71] | 80.6 µM | 17.5 |  |  |  | IC50 [3]: 74.3 µM
48 | O=C(O)c1ncsc1NS(=O)(=O)c1ccccn1 [Compound 75] | 12.9 µM | > 200 |  |  |  | IC50 [2]: 16.1 µM; IC50 [3]: 114 µM
49 | O=C(O)c1ncsc1NS(=O)(=O)c1ccncc1 [Compound 77] | 3.4 µM | 180 |  |  |  | IC50 [2]: 1.8 µM; IC50 [3]: 23.4 µM
50 | C[C@@H](O)[C@H]1C(=O)N2C(C(=O)O)=C(S[C@@H]3CN[C@H](C(=O)N(C)C)C3)[C@H](C)[C@H]12 [meropenem, reference compound] |  |  |  |  |  | MIC ([5]; Klebsiella pneumoniae): 4 µg/mL; MIC meropenem (no inhibitor) vs NTBC062 [5]: 4 µg/mL; MIC ([6]; Klebsiella pneumoniae): 16 µg/mL; MIC meropenem (no inhibitor) vs NTBC055 [6]: 16 µg/mL; MIC ([7]; Escherichia coli): 32 µg/mL; MIC meropenem (no inhibitor) vs NTBC121 [7]: 32 µg/mL

Reference: publication PMC6332448, “SAR Studies Leading to the Identification of a Novel Series of Metallo-β-lactamase Inhibitors for the Treatment of Carbapenem-Resistant Enterobacteriaceae Infections That Display Efficacy in an Animal Infection Model” (ACS Infectious Diseases, 2018)
